Legend:
[1] = target: Aurora kinase B (Homo sapiens) (UniProt Q96GD4); test: Inhibition of Aurora B (unknown origin) at 0.1 uM relative to control
[2] = target: Cyclin-dependent kinase 5/CDK5 activator 1 (Homo sapiens) (UniProt Q00535+Q15078); test: Inhibition of CDK5/p35 (unknown origin) at 0.1 uM relative to control; assay type: protein-complex assay
[3] = target: Dual specificity protein kinase CLK1 (Homo sapiens) (UniProt P49759); test: Inhibition of CLK1 (unknown origin) at 0.1 uM relative to control
[4] = target: Calcium/calmodulin-dependent protein kinase type II subunit delta (Homo sapiens) (UniProt Q13557); test: Inhibition of CaMKIIdelta (unknown origin) at 0.1 uM relative to control
[5] = target: Serine/threonine-protein kinase DCLK2 (Homo sapiens) (UniProt Q8N568); test: Inhibition of DCAMKL2 (unknown origin) at 0.1 uM relative to control
[6] = target: Focal adhesion kinase 1 (Homo sapiens) (UniProt Q05397); test: Inhibition of FAK (unknown origin) at 0.1 uM relative to control
[7] = target: Fibroblast growth factor receptor 4 (Homo sapiens) (UniProt P22455); test: Inhibition of FGFR4 (unknown origin) at 0.1 uM relative to control
[8] = target: Vascular endothelial growth factor receptor 3 (Homo sapiens) (UniProt P35916); test: Inhibition of Flt4 (unknown origin) at 0.1 uM relative to control
[9] = target: Tyrosine-protein kinase FRK (Homo sapiens) (UniProt P42685); test: Inhibition of Frk (unknown origin) at 0.1 uM relative to control
[10] = target: G protein-coupled receptor kinase 3 (Homo sapiens) (UniProt P35626); test: Inhibition of GRK3 (unknown origin) at 0.1 uM relative to control
[11] = target: Homeodomain-interacting protein kinase 1 (Homo sapiens) (UniProt Q86Z02); test: Inhibition of HIPK1 (unknown origin) at 0.1 uM relative to control
[12] = target: Megakaryocyte-associated tyrosine-protein kinase (Homo sapiens) (UniProt P42679); test: Inhibition of Hyl (unknown origin) at 0.1 uM relative to control
[13] = target: MAP kinase-activated protein kinase 2 (Homo sapiens) (UniProt P49137); test: Inhibition of MAPKAPK2 (unknown origin) at 0.1 uM relative to control
[14] = target: Dual specificity mitogen-activated protein kinase kinase 2 (Homo sapiens) (UniProt P36507); test: Inhibition of MEK2 (unknown origin) at 0.1 uM relative to control
[15] = target: Maternal embryonic leucine zipper kinase (Homo sapiens) (UniProt Q14680); test: Inhibition of MELK (unknown origin) at 0.1 uM relative to control
[16] = target: MAP kinase-interacting serine/threonine-protein kinase 1 (Homo sapiens) (UniProt Q9BUB5); test: Inhibition of MKNK1 (unknown origin) at 0.1 uM relative to control
[17] = target: Serine/threonine-protein kinase MRCK alpha (Homo sapiens) (UniProt Q5VT25); test: Inhibition of MRCKalpha (unknown origin) at 0.1 uM relative to control
[18] = target: Ribosomal protein S6 kinase alpha-5 (Homo sapiens) (UniProt O75582); test: Inhibition of MSK1 (unknown origin) at 0.1 uM relative to control
[19] = target: Mitogen-activated protein kinase kinase kinase kinase 4 (Homo sapiens) (UniProt O95819); test: Inhibition of NIK (unknown origin) at 0.1 uM relative to control
[20] = target: PAS domain-containing serine/threonine-protein kinase (Homo sapiens) (UniProt Q96RG2); test: Inhibition of PASK (unknown origin) at 0.1 uM relative to control
[21] = target: Protein kinase C delta type (Homo sapiens) (UniProt Q05655); test: Inhibition of PKCdelta (unknown origin) at 0.1 uM relative to control
[22] = target: Protein kinase C theta type (Homo sapiens) (UniProt Q04759); test: Inhibition of PKCtheta (unknown origin) at 0.1 uM relative to control
[23] = target: Serine/threonine-protein kinase PLK2 (Homo sapiens) (UniProt Q9NYY3); test: Inhibition of PLK2 (unknown origin) at 0.1 uM relative to control
[24] = target: Proto-oncogene tyrosine-protein kinase ROS (Homo sapiens) (UniProt P08922); test: Inhibition of Ros (unknown origin) at 0.1 uM relative to control
[25] = target: Ribosomal protein S6 kinase alpha-1 (Homo sapiens) (UniProt Q15418); test: Inhibition of Rsk1 (unknown origin) at 0.1 uM relative to control
[26] = target: Serine/threonine-protein kinase Sgk2 (Homo sapiens) (UniProt Q9HBY8); test: Inhibition of SGK2 (unknown origin) at 0.1 uM relative to control
[27] = target: Non-receptor tyrosine-protein kinase TYK2 (Homo sapiens) (UniProt P29597); test: Inhibition of TYK2 (unknown origin) at 0.1 uM relative to control
[28] = target: Serine/threonine-protein kinase 25 (Homo sapiens) (UniProt O00506); test: Inhibition of YSK1 (unknown origin) at 0.1 uM relative to control
[29] = target: Death-associated protein kinase 3 (Homo sapiens) (UniProt O43293); test: Inhibition of ZIPK (unknown origin) at 0.1 uM relative to control
[30] = target: Eukaryotic elongation factor 2 kinase (Homo sapiens) (UniProt O00418); test: Inhibition of eEF-2K (unknown origin) at 0.1 uM relative to control
[31] = target: Mitogen-activated protein kinase 11 (Homo sapiens) (UniProt Q15759); test: Inhibition of p38beta (unknown origin) at 0.1 uM relative to control
[32] = target: Protein kinase C eta type (Homo sapiens) (UniProt P24723); test: Inhibition of PKCeta (unknown origin) at 0.1 uM relative to control
[33] = target: CDK8/Cyclin C (Homo sapiens) (UniProt P49336+P24863); test: Inhibition of CDK8/CyclinC (unknown origin) at 0.1 uM relative to control; assay type: protein-complex assay
[34] = target: Leucine-rich repeat serine/threonine-protein kinase 2 (Homo sapiens) (UniProt Q5S007); test: Inhibition of LRRK2 (unknown origin) at 0.1 uM relative to control
[35] = target: Phosphatidylinositol 4,5-bisphosphate 3-kinase catalytic subunit gamma isoform (Homo sapiens) (UniProt P48736); test: Inhibition of PI3Kgamma (unknown origin) at 0.1 uM relative to control
[36] = target: cAMP-dependent protein kinase (PKA) (Homo sapiens) (UniProt P22694+P17612+P22612); test: Inhibition of PKA (unknown origin) at 0.1 uM relative to control; assay type: protein assay
[37] = target: Receptor-interacting serine/threonine-protein kinase 2 (Homo sapiens) (UniProt O43353); test: Inhibition of RIPK2 (unknown origin) at 0.1 uM relative to control
[38] = target: TGF-beta receptor type-1 (Homo sapiens) (UniProt P36897); test: Inhibition of TGFBR1 (unknown origin) at 0.1 uM relative to control
Sequence of TGF-beta receptor type-1 (Homo sapiens) (P36897 whole entry): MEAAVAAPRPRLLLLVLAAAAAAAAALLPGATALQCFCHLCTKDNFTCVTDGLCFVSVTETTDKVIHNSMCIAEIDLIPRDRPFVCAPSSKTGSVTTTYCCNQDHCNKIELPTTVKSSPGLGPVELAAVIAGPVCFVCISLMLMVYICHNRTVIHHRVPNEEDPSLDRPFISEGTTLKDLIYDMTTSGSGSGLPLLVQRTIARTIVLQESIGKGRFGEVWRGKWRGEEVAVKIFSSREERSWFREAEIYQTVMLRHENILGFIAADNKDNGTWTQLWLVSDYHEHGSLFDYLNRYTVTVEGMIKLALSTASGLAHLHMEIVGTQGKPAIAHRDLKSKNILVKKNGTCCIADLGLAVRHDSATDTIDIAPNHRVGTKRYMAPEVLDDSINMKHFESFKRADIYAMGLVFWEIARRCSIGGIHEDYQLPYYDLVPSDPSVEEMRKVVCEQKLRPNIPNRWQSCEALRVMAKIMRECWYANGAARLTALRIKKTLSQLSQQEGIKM

Sequence of Focal adhesion kinase 1 (Homo sapiens) (Q05397 2-1052 limits assumed): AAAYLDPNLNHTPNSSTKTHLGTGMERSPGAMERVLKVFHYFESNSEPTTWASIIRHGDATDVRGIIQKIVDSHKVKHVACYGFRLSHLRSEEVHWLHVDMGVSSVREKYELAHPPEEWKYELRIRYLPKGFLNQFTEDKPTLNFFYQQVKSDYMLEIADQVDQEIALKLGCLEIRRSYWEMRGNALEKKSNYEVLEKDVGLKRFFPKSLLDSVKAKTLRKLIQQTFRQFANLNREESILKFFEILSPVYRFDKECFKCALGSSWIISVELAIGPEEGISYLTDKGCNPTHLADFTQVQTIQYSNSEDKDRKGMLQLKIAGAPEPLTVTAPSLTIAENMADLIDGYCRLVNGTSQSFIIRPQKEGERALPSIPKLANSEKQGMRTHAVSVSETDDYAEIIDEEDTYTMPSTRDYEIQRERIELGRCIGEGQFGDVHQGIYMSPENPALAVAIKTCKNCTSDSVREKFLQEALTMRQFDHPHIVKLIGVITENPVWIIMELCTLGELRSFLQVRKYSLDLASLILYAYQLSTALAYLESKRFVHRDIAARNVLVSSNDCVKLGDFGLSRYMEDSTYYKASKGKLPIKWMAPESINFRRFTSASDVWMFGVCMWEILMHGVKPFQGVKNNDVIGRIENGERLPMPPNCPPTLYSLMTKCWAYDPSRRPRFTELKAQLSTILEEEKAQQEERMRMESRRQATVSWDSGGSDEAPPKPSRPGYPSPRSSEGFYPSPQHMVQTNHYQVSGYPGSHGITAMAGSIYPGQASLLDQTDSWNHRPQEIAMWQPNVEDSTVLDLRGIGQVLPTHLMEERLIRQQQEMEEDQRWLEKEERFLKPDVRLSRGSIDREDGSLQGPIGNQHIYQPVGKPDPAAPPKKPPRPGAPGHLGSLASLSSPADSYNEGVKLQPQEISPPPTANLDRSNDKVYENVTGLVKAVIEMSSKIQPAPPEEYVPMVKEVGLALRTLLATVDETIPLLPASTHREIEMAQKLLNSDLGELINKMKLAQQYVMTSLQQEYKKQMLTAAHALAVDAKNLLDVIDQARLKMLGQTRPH
Sequence of MAP kinase-activated protein kinase 2 (Homo sapiens) (P49137 whole entry, looked up): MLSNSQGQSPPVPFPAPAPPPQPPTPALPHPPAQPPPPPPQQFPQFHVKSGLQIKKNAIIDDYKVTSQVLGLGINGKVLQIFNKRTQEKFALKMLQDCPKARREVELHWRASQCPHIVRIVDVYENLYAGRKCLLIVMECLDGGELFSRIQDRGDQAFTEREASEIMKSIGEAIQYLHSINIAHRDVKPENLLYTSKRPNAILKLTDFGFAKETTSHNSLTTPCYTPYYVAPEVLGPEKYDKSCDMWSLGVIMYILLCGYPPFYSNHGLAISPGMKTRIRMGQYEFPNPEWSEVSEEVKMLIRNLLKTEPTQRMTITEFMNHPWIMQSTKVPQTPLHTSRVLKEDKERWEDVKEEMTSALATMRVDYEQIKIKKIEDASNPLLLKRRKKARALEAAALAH
Sequence of Eukaryotic elongation factor 2 kinase (Homo sapiens) (O00418 whole entry): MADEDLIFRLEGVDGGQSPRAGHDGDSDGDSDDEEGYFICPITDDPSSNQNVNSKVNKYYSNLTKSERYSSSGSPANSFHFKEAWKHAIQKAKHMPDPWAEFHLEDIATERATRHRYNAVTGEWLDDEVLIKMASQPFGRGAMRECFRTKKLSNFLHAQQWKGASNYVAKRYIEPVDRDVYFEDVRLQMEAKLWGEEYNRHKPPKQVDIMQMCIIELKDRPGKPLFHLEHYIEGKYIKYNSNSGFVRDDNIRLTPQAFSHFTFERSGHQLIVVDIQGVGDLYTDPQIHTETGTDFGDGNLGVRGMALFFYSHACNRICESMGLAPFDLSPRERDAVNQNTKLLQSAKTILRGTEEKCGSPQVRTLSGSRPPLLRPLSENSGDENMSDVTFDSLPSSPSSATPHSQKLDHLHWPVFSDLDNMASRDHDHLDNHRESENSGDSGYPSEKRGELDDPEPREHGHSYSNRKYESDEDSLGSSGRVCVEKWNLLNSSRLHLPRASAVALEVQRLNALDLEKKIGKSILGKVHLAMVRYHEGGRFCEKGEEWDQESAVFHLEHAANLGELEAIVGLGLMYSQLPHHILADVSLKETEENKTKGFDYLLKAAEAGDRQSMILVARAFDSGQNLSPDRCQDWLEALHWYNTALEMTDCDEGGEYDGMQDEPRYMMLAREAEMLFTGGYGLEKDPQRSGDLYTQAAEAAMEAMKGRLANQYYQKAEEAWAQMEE
Sequence of Protein kinase C delta type (Homo sapiens) (Q05655 whole entry, looked up): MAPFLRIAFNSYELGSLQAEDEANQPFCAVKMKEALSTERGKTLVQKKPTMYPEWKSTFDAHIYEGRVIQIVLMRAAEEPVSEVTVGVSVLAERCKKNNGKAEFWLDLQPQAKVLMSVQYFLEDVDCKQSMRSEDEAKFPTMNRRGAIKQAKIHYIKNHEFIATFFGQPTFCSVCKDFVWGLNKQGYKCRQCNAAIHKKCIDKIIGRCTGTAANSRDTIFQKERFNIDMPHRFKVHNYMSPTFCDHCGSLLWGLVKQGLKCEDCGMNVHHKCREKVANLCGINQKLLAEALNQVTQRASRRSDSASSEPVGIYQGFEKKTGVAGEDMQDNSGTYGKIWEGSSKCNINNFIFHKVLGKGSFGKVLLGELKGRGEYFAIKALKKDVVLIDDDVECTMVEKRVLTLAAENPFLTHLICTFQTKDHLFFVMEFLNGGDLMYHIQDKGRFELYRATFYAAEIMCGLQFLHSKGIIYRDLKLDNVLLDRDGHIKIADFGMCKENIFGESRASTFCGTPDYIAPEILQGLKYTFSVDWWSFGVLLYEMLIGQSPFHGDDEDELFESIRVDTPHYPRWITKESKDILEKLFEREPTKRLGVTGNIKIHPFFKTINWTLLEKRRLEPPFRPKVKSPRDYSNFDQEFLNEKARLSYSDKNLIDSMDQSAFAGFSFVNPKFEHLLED
Sequence of Serine/threonine-protein kinase Sgk2 (Homo sapiens) (Q9HBY8 whole entry): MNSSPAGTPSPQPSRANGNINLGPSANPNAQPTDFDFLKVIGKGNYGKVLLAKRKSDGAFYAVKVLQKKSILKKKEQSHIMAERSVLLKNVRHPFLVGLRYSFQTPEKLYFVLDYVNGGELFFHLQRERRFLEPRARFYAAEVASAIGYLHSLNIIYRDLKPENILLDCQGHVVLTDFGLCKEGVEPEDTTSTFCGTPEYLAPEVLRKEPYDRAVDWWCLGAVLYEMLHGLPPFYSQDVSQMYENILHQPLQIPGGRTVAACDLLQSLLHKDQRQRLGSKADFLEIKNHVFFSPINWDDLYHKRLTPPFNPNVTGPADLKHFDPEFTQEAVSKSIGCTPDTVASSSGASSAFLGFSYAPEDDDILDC
Sequence of G protein-coupled receptor kinase 3 (Homo sapiens) (P35626 whole entry): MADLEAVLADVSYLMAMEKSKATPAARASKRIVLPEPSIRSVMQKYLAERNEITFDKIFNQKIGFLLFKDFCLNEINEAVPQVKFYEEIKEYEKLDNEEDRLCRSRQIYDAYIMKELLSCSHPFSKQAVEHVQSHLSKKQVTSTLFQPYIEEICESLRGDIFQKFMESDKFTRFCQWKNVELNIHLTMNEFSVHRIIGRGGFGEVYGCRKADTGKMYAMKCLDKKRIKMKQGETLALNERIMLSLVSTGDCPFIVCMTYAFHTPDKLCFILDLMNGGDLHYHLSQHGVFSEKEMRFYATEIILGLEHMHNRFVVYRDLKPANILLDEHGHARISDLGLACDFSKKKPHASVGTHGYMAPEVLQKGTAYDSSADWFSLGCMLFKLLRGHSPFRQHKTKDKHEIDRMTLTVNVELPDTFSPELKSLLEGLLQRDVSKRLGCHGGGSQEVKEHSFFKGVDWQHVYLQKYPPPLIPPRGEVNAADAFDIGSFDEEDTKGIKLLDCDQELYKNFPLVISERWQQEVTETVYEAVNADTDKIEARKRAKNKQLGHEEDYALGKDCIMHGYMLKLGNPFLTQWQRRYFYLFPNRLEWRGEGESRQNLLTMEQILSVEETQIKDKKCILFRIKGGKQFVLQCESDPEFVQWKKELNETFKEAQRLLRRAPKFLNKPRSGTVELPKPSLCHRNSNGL
Sequence of Cyclin-dependent kinase 5/CDK5 activator 1 (Homo sapiens) (Q00535 whole entry): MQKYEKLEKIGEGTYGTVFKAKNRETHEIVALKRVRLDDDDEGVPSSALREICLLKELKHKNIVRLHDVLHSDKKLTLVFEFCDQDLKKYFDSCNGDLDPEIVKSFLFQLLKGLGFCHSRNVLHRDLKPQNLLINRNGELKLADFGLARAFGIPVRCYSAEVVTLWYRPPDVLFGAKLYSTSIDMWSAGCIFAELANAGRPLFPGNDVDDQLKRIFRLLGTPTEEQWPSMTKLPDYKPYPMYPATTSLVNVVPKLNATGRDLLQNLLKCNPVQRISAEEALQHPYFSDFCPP
Sequence of Cyclin-dependent kinase 5/CDK5 activator 1 (Homo sapiens) (Q15078 99-307 partner limits assumed): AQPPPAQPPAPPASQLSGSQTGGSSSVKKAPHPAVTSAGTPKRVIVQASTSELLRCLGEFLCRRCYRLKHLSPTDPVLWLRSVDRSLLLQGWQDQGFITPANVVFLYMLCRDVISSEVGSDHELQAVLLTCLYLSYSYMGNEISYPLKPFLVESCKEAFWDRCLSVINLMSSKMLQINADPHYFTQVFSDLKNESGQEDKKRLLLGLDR

SMILES: COCCNc1nc2ccc(C#CC3(O)CCCCC3)cc2n1-c1ccnc(N)n1
- inhibition [1]: 4.7%
- inhibition [2]: -1.6%
- inhibition [3]: 11.3%
- inhibition [4]: 6.9%
- inhibition [5]: 10.9%
- inhibition [6]: 3.5%
- inhibition [7]: -1%
- inhibition [8]: 1%
- inhibition [9]: 13.1%
- inhibition [10]: 1.1%
- inhibition [11]: 1.7%
- inhibition [12]: 6.6%
- inhibition [13]: 3.9%
- inhibition [14]: -0.6%
- inhibition [15]: 4.1%
- inhibition [16]: -2.7%
- inhibition [17]: -2.4%
- inhibition [18]: 4.2%
- inhibition [19]: -0.5%
- inhibition [20]: 15.9%
- inhibition [21]: 0.5%
- inhibition [22]: 12.3%
- inhibition [23]: 10.8%
- inhibition [24]: 6.8%
- inhibition [25]: 6.7%
- inhibition [26]: -2.9%
- inhibition [27]: 3.3%
- inhibition [28]: 6.5%
- inhibition [29]: 2.9%
- inhibition [30]: 4.3%
- inhibition [31]: -6.4%

SMILES: CN1CCc2cc(-c3cnc4[nH]cc(C(=O)c5ccccc5Cl)c4c3)ccc2C1
- inhibition [32]: 17%
- inhibition [33]: 57.3%
- inhibition [34]: 48.2%
- inhibition [35]: 4.1%
- inhibition [36]: 13%
- inhibition [37]: 101%
- inhibition [38]: 99.3%

Reference: ChEMBL document CHEMBL5678812, “Inhibitors of p21-activated kinases (PAKs)” (J Med Chem, 2015)
